# Assay results taken from patent publication US12371454B2, “Cyclic peptide compound having Kras inhibitory action” (priority 2019, dated 2025).
# pIC50: −log10 of the molar value. Starred links: 1 amine or outer side, 2 acyl side, 3 side chain; linkers in the order of their positions; H or OH if unused. Positions of bridges follow the written chain, without caps; N, C: chain ends. Non-standard residues stand in square brackets, D forms with d. Residues, ends and D or L forms follow the SMILES beside them. *: point of attachment. hPhe(3-Cl-4-CF3) = N[C@@H](CCc1ccc(C(F)(F)F)c(Cl)c1)C(=O)O; hPhe(3-F,4-CF3) = N[C@@H](CCc1ccc(C(F)(F)F)c(F)c1)C(=O)O; X60 = CC(C)Oc1cc(CC[C@H](N[*:1])C(=O)[*:2])cc(Cl)c1Cl; X75 = O=C([C@H](CCc1ccc2c(c1)OC(F)(F)O2)N[*:1])[*:2]; X85 = O=C([C@@H]1C[C@@H](n2ccnn2)CN1[*:1])[*:2]; 3Oxa8azabicyclo(3.2.1)octane = C1CC2COCC1N2*; NMePhe(4-Me) = CN[C@@H](Cc1ccc(C)cc1)C(=O)O; NMedβ3hAla = C[C@H](CC(=O)[*:2])N(C)[*:1]; NMeAla(cPent) = CN[C@@H](CC1CCCC1)C(=O)O; NMeGly(cPent) = CN[C@H](C(=O)O)C1CCCC1; NMeAla(cPr) = CN[C@@H](CC1CC1)C(=O)O; NMeCha = CN[C@@H](CC1CCCCC1)C(=O)O; cisHyp = O=C(O)[C@@H]1C[C@H](O)CN1; Gly(N-(CH2)2OEt) = CCOCCNCC(=O)O; Hyp = O=C(O)[C@@H]1C[C@@H](O)CN1; NMeChg = CN[C@H](C(=O)O)C1CCCCC1; NMeF = CN[C@@H](Cc1ccccc1)C(=O)O; NMeI = CC[C@H](C)[C@H](NC)C(=O)O; NMeD = CN[C@@H](CC(=O)O)C(=O)O; NMeL = CN[C@@H](CC(C)C)C(=O)O; NMeV = CN[C@H](C(=O)O)C(C)C; d(β3hA) = C[C@@H](N)CC(=O)O; NMeS = CN[C@@H](CO)C(=O)O; Morpholide = C1CN(*)CCO1; NMeA = CN[C@@H](C)C(=O)O; NMeAib = CNC(C)(C)C(=O)O; Piperidide = C1CCN(*)CC1; Pyrrolidide = C1CCN(*)C1; Ac5c = NC1(C(=O)O)CCCC1; Aze = O=C(O)[C@@H]1CCN1; CH2CMe2OH = CC(C)(O)C*; Sar = CNCC(=O)O
# Tested on: Human pancreatic cancer cell line AsPC-1
# Experiment: Measurement of AsPC-1 cell growth inhibition (AsPC-1 CGI)
# Type: cell-based
# Conditions: 96 h
# Procedure, shortened: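 AsPC-1 cells in 15% FBS RPMI-1640 were exposed to test compound for 96 hours at 37° C, with CellTiter-Glo as endpoint.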
row,SMILES,pIC50
1,CC[C@H](C)[C@@H]1NC(=O)[C@H](CC(C)C)N(C)C(=O)C[C@@H](C(=O)N2C3CCC2COC3)N(C)C(=O)[C@H]([C@@H](C)CC)N(C)C(=O)C2(CCCC2)NC(=O)[C@@H]2CCCN2C(=O)[C@H](CCc2ccc(C(F)(F)F)c(Cl)c2)NC(=O)CN(C)C(=O)[C@H](C2CCCC2)N(C)C(=O)[C@@H]2CCN2C(=O)[C@H](C)N(C)C1=O [Compound 1002] ([NMeL]I[NMeA][Aze][NMeGly(cPent)][Sar][hPhe(3-Cl-4-CF3)]P[Ac5c][NMeI][NMeD]-{3Oxa8azabicyclo(3.2.1)octane}; lactam N-11),7.30 to 7.70
2,"CC[C@H](C)[C@@H]1NC(=O)[C@H](CC(C)C)N(C)C(=O)C[C@@H](C(=O)N2CCCCC2)N(C)C(=O)[C@H](C2CCCCC2)N(C)C(=O)C2(CCCC2)NC(=O)[C@@H]2C[C@H](O)CN2C(=O)[C@H](CCc2ccc(C(F)(F)F)c(Cl)c2)NC(=O)CN(C)C(=O)[C@H](CC2CCCCC2)N(C)C(=O)CN(C)C(=O)CN(C)C1=O [Compound 1374, (3S,9S,18S,21S,25S,28S,34S,36S)-3-[2-[3-chloro-4-(trifluoromethyl)phenyl]ethyl]-28-cyclohexyl-9-(cyclohexylmethyl)-36-hydroxy-21-isobutyl-7,10,13,16,22,26,29-heptamethyl-18-[(1S)-1-methylpropyl]-25-(piperidine-1-carbonyl)spiro[1,4,7,10,13,16,19,22,26,29,32-undecazabicyclo[32.3.0]heptatriacontane-31,1′-cyclopentane]-2,5,8,11,14,17,20,23,27,30,33-undecone] ([NMeL]I[Sar][Sar][NMeCha][Sar][hPhe(3-Cl-4-CF3)][cisHyp][Ac5c][NMeChg][NMeD]-Piperidide; lactam N-11)",7.00 to 7.30
3,CC[C@H](C)[C@@H]1NC(=O)[C@H](C)N(C)C(=O)C[C@@H](C(=O)N2CCCCC2)N(C)C(=O)[C@H](C2CCCCC2)N(C)C(=O)C2(CCCC2)NC(=O)[C@@H]2CCCN2C(=O)[C@H](CCc2cc(Cl)c(Cl)c(OC(C)C)c2)NC(=O)CN(C)C(=O)[C@H](CC2CCCCC2)N(C)C(=O)CN(C)C(=O)CN(C)C1=O [Compound 2062] ([NMeA]I[Sar][Sar][NMeCha][Sar][X60]P[Ac5c][NMeChg][NMeD]-Piperidide; lactam N-11; C-terminus assumed),< 6.30
4,CC[C@H](C)[C@@H]1NC(=O)[C@H](CC(C)C)N(C)C(=O)C[C@@H](C)N(C)C(=O)[C@H](C(C)C)N(C)C(=O)C2(CCCC2)NC(=O)[C@@H]2CCCN2C(=O)[C@H](CCc2ccc(C(F)(F)F)c(Cl)c2)NC(=O)CN(C)C(=O)[C@H](CC2CCCCC2)N(C)C(=O)[C@@H]2CCN2C(=O)[C@H](C)N(C)C1=O [Compound 1800] (cyclo([Ac5c][NMeV][NMedβ3hAla][NMeL]I[NMeA][Aze][NMeCha][Sar][hPhe(3-Cl-4-CF3)]P)),7.00 to 7.30
5,"CC[C@H](C)[C@@H]1NC(=O)[C@H](CC(C)C)N(C)C(=O)C[C@@H](C(=O)N2CCCC2)N(C)C(=O)[C@H]([C@@H](C)CC)N(C)C(=O)C2(CCCC2)NC(=O)[C@@H]2CCCN2C(=O)[C@H](CCc2ccc(C(F)(F)F)c(F)c2)NC(=O)CN(C)C(=O)[C@H](C2CCCC2)N(C)C(=O)[C@@H]2CCN2C(=O)[C@H](C)N(C)C1=O [Compound 313] ([NMeL]I[NMeA][Aze][NMeGly(cPent)][Sar][hPhe(3-F,4-CF3)]P[Ac5c][NMeI][NMeD]-Pyrrolidide; lactam N-11)",7.30 to 7.70
6,CC[C@H](C)[C@@H]1NC(=O)[C@H](CC2CC2)N(C)C(=O)C[C@@H](C)NC(=O)[C@H](C(C)C)N(C)C(=O)C2(CCCC2)NC(=O)[C@@H]2CCCN2C(=O)[C@H](CCc2ccc(C(F)(F)F)c(Cl)c2)NC(=O)CN(C)C(=O)[C@H](CC2CCCCC2)N(C)C(=O)[C@@H]2CCN2C(=O)[C@H](C)N(C)C1=O [Compound 771] (cyclo([Ac5c][NMeV][d(β3hA)][NMeAla(cPr)]I[NMeA][Aze][NMeCha][Sar][hPhe(3-Cl-4-CF3)]P)),6.30 to 7.00
7,CC[C@H](C)[C@@H]1NC(=O)[C@H](CC(C)C)N(C)C(=O)C[C@@H](C(=O)N2CCCCC2)N(C)C(=O)[C@H](C(C)C)N(C)C(=O)C2(CCCC2)NC(=O)[C@@H]2CCCN2C(=O)[C@H](CCc2ccc(C(F)(F)F)c(Cl)c2)NC(=O)CN(C)C(=O)[C@H](CC2CCCCC2)N(C)C(=O)[C@@H]2CCN2C(=O)[C@H](Cc2ccccc2)N(C)C1=O [Compound 1561] ([NMeL]I[NMeF][Aze][NMeCha][Sar][hPhe(3-Cl-4-CF3)]P[Ac5c][NMeV][NMeD]-Piperidide; lactam N-11),6.30 to 7.00
8,CC[C@H](C)[C@@H]1NC(=O)[C@H](CC(C)C)N(C)C(=O)C[C@@H](C(=O)N2CCCC2)N(C)C(=O)[C@H](C2CCCCC2)N(C)C(=O)C2(CCCC2)NC(=O)[C@@H]2CCCN2C(=O)[C@H](CCc2ccc(C(F)(F)F)c(Cl)c2)NC(=O)CN(C)C(=O)[C@H](Cc2ccc(C)cc2)N(C)C(=O)[C@@H]2CCN2C(=O)[C@H](C)N(C)C1=O [Compound 1852] ([NMeL]I[NMeA][Aze][NMePhe(4-Me)][Sar][hPhe(3-Cl-4-CF3)]P[Ac5c][NMeChg][NMeD]-Pyrrolidide; lactam N-11),7.30 to 7.70
9,CC[C@H](C)[C@@H]1NC(=O)[C@H](C)N(C)C(=O)C[C@@H](C)N(C)C(=O)[C@H](C(C)C)N(C)C(=O)C(C)(C)N(C)C(=O)[C@@H]2CCCN2C(=O)[C@H](CCc2ccc(C(F)(F)F)c(Cl)c2)NC(=O)CN(C)C(=O)[C@H](CC2CCCCC2)N(C)C(=O)[C@@H]2CCN2C(=O)[C@H](C)N(C)C1=O [Compound 341] (cyclo([Aze][NMeCha][Sar][hPhe(3-Cl-4-CF3)]P[NMeAib][NMeV][NMedβ3hAla][NMeA]I[NMeA])),6.30 to 7.00
10,"CC[C@H](C)[C@@H]1NC(=O)[C@H](CC(C)C)N(C)C(=O)C[C@@H](C(=O)N2CCOCC2)N(C)C(=O)[C@H]([C@@H](C)CC)N(C)C(=O)C2(CCCC2)NC(=O)[C@@H]2CCCN2C(=O)[C@H](CCc2ccc(C(F)(F)F)c(F)c2)NC(=O)CN(C)C(=O)[C@H](CC2CCCCC2)N(C)C(=O)[C@@H]2CCN2C(=O)[C@H](C)N(C)C1=O [Compound 790] ([NMeL]I[NMeA][Aze][NMeCha][Sar][hPhe(3-F,4-CF3)]P[Ac5c][NMeI][NMeD]-Morpholide; lactam N-11)",7.30 to 7.70
11,CCOCCN1CC(=O)NC2(CCCC2)C(=O)N(C)[C@@H](C2CCCCC2)C(=O)N(C)[C@H](C(=O)N2CCCCC2)CC(=O)N(C)[C@@H](CC(C)C)C(=O)N[C@@H]([C@@H](C)CC)C(=O)N(C)CC(=O)N(C)CC(=O)N(C)[C@@H](CC2CCCCC2)C(=O)N(C)CC(=O)N[C@@H](CCc2ccc(C(F)(F)F)c(Cl)c2)C1=O [Compound 872] ([NMeL]I[Sar][Sar][NMeCha][Sar][hPhe(3-Cl-4-CF3)][Gly(N-(CH2)2OEt)][Ac5c][NMeChg][NMeD]-Piperidide; lactam N-11),6.30 to 7.00
12,"CC[C@H](C)[C@@H]1NC(=O)[C@H](CC(C)C)N(C)C(=O)C[C@@H](C(=O)N2CCCCC2)N(C)C(=O)[C@H](C(C)C)N(C)C(=O)C2(CCCC2)NC(=O)[C@@H]2C[C@@H](n3ccnn3)CN2C(=O)[C@H](CCc2ccc(C(F)(F)F)c(Cl)c2)NC(=O)CN(C)C(=O)[C@H](CC2CCCC2)N(C)C(=O)CN(C)C(=O)CN(C)C1=O [Compound 2113, (3S,9S,18S,21S,25S,28S,34S,36R)-3-[2-[3-chloro-4-(trifluoromethyl)phenyl]ethyl]-9-(cyclopentylmethyl)-21-isobutyl-28-isopropyl-7,10,13,16,22,26,29-heptamethyl-18-[(1S)-1-methylpropyl]-25-(piperidine-1-carbonyl)-36-(triazol-1-yl)spiro[1,4,7,10,13,16,19,22,26,29,32-undecazabicyclo[32.3.0]heptatriacontane-31,1′-cyclopentane]-2,5,8,11,14,17,20,23,27,30,33-undecone] ([NMeL]I[Sar][Sar][NMeAla(cPent)][Sar][hPhe(3-Cl-4-CF3)][X85][Ac5c][NMeV][NMeD]-Piperidide; lactam N-11)",< 6.30
13,CC[C@H](C)[C@@H]1NC(=O)[C@H](CC(C)C)N(C)C(=O)C[C@@H](C(=O)N2CCCCC2)N(C)C(=O)[C@H](C2CCCCC2)N(C)C(=O)C2(CCCC2)NC(=O)[C@H](COCC(C)(C)O)N(C)C(=O)[C@H](CCc2ccc(C(F)(F)F)c(Cl)c2)NC(=O)CN(C)C(=O)[C@H](CC2CCCCC2)N(C)C(=O)CN(C)C(=O)CN(C)C1=O [Compound 789] ([NMeL]I[Sar][Sar][NMeCha][Sar][hPhe(3-Cl-4-CF3)][NMeS](CH2CMe2OH)[Ac5c][NMeChg][NMeD]-Piperidide; lactam N-11),6.30 to 7.00
14,CC[C@H](C)[C@@H]1NC(=O)[C@H](CC(C)C)N(C)C(=O)C[C@@H](C)NC(=O)[C@H]([C@@H](C)CC)N(C)C(=O)C2(CCCC2)NC(=O)[C@@H]2CCCN2C(=O)[C@H](CCc2ccc(C(F)(F)F)c(Cl)c2)NC(=O)CN(C)C(=O)[C@H](CC2CCCCC2)N(C)C(=O)[C@@H]2CCN2C(=O)[C@H](C)N(C)C1=O [Compound 1654] (cyclo([Ac5c][NMeI][d(β3hA)][NMeL]I[NMeA][Aze][NMeCha][Sar][hPhe(3-Cl-4-CF3)]P)),7.00 to 7.30
15,CC[C@H](C)[C@@H]1NC(=O)[C@H](CC(C)C)N(C)C(=O)C[C@@H](C(=O)N2CCCCC2)N(C)C(=O)[C@H](C2CCCC2)N(C)C(=O)C2(CCCC2)NC(=O)[C@@H]2CCCN2C(=O)[C@H](CCc2ccc3c(c2)OC(F)(F)O3)NC(=O)CN(C)C(=O)[C@H](CC2CCCCC2)N(C)C(=O)[C@@H]2CCN2C(=O)[C@H](C)N(C)C1=O [Compound 2074] ([NMeL]I[NMeA][Aze][NMeCha][Sar][X75]P[Ac5c][NMeGly(cPent)][NMeD]-Piperidide; lactam N-11),7.00 to 7.30
16,CCO[C@@H]1C[C@H]2C(=O)NC3(CCCC3)C(=O)N(C)[C@@H](CC(C)C)C(=O)N(C)[C@H](C(=O)N3CCCC3)CC(=O)N(C)[C@@H](CC(C)C)C(=O)N[C@@H]([C@@H](C)CC)C(=O)N(C)CC(=O)N(C)CC(=O)N(C)[C@@H](CC3CCCCC3)C(=O)N(C)CC(=O)N[C@@H](CCc3ccc(C(F)(F)F)c(Cl)c3)C(=O)N2C1 [Compound 1748] ([NMeL]I[Sar][Sar][NMeCha][Sar][hPhe(3-Cl-4-CF3)][Hyp](Et)[Ac5c][NMeL][NMeD]-Pyrrolidide; lactam N-11),7.00 to 7.30
